The values that follow come from publication PMC13252604, “First Generation Proteolysis Targeting Chimeras (PROTACs) for the Treatment of Progeria” (Advanced Science, 2026).

This experiment relates to HGADFN167 Lmna^G608G/G608G fibroblasts. In words: Cell cycle analysis by flow cytometry. The following applies: HGADFN167, 5 µM, 20 days. It counts as cell-based, human. On the procedure: Supporting Figure S5. Cell cycle analysis histogram. Flow cytometry analysis of DNA content showing cell cycle distribution with peaks corresponding to G0/G1 (labeled as M1) and G2/M phases, and an intermediate region representing S phase (S/G2/M are labeled as M2). Human progeroid LmnaG608G/G608G fibroblasts (HGADFN167 cells, from The Progeria Research Foundation) were incubated with 5 μM of compound 2 for 20 days and analyzed for DNA content by flow cytometry in a FACSCalibur Flow cytometer (Becton Dickinson). Images shown correspond to one representative analysis and bar graph represents mean±sem of 2 independent experiments performed in duplicate.
*p<0.05 vs HGADFN167 cells, one-way ANOVA. […]
Cells were harvested by trypsin, centrifuged and washed with PBS. Cells pellets were added with 70% (vol/vol) ice-cold ethanol. […] The mixture was then allowed to incubate for 30min at 37 °C in the dark and samples were finally analysed by FACScalibur (Becton Dickinson) flow cytometer […]
Cells were incubated for 1 h in 1% OsO4 at room temperature and then thoroughly washed with milliQ water. […] The samples were analysed and examined in the transmission electron microscope JEM 1010 at 80 […]
Total RNA of HGPS fibroblasts (HGADFN167) and UCM-18142-treated HGPS fibroblasts were extracted for RNA sequencing. The RNA concentration and integrity were assessed using the Tape Station 4150 system (Agilent). […]

Consider `CC1(C)Oc2cc3oc(=O)ccc3cc2C[C@@H]1OC(=O)CCCCCNc1cccc2c1C(=O)N(C1CCC(=O)NC1=O)C2=O` (stereo partly shown) [compound 2], for which the “percentage of cells undergoing replication (phases S/G2/M)” value is “increase”.
